# In patent US20230096601A1, “BORTEZOMIB COMPOSITIONS” (MAIA Pharmaceuticals, Inc., priority 2021, published 2023):
# Tests used:
# [1] = Accelerated / room temperature stability testing at 25° C./60% RH, HPLC assay and impurities (percent of nominal bortezomib concentration); assay type: physicochemical
# Procedure: The compositions described herein are storage stable aqueous liquid ready-to-use compositions. The degradation of the active ingredient, as well as the formation of various impurities is controlled by the composition to a minimal level. Stability testing was performed at the long-term stability condition (2-8° C.) as well as the accelerated stability condition (25±2° C./60±5% RH) for refrigerated products. At each time point, the bortezomib content (assay) and the impurity profile was determined using an HPLC procedure, and a bortezomib reference standard. The HPLC method utilizes a reverse phase column with an aqueous formic acid/acetonitrile and aqueous formic acid/methanol mobile phase gradient and UV/PDA detector at a wavelength of about 270 nm.
# The effect of pH on bortezomib formulations using a low concentration of DMSO in water (4.5% v/v DMSO for the 2.5 mg/mL strength and 1% v/v DMSO for the 1 mg/mL strength) was then assessed. In each case, the bortezomib was first fully dissolved in the batch quantity of DMSO to form a concentrated premix solution, which was then added to water, and the pH adjusted with sodium hydroxide and/or hydrochloric acid to pH ranging from 4 to 8.5. […] Because oxidative degradation is a significant degradation pathway for bortezomib, filled vials were overlayed with nitrogen. These batches were placed on stability at accelerated (25° C.) and long-term storage conditions (2-8° C.). […] Although the 2.5 mg/mL formulations were not physically stable at 25° C., chemical stability, based on analysis after 2 months at 25° C., stability was poor at pH 4 and pH 8.5 for both strengths, with good stability being observed at pH 5.5 for the 2.5 mg/mL strength and pH 5.5 and 7 for the 1 mg/mL strength.
# The preparation of the concentrated bortezomib premix is performed. The batch quantity of bortezomib is added to a suitable glass container. The batch quantity of the non-aqueous solvent is then added to the bortezomib, and mixed until the bortezomib is completely dissolved. The initial aqueous component is separately prepared by dissolving the other excipients such as buffer, optionally a solubilizer and/or stabilizer, or a tonicity adjuster, in water for injection, which optionally has been degassed by sparging nitrogen through it and adjusting to the desired pH using appropriate pH adjusting agent, if needed. The aqueous component is typically prepared at about double the corresponding concentration(s) in the final formulation; this was typically accomplished by dissolving the excipients in approximately half the batch volume of water. The bortezomib premix is then added to the (concentrated) aqueous component, and mixed. Water is then added to make up to about 80-90% of the batch volume and a final pH adjustment is performed to the target pH using appropriate pH adjusting agent, if needed. After final pH adjustment, the batch is made up to the target batch volume. The batch is then sterile filtered using a 0.2 micron filter, filled into (2-mL, or 3-mL, or 5-mL) USP Type I, optionally amber, glass vials, stoppered with (13-mm or 20-mm) fluoropolymer-coated chlorobutyl rubber stoppers, and sealed with (13-mm or 20-mm) aluminum caps. The fill volume used is typically 3.5 mL for the 1 mg/mL formulations or 1.4 mL for the 2.5 mg/mL formulations (to contain 3.5 mg bortezomib per vial). Because bortezomib is known to be oxidation and light sensitive, compounding and filling is typically carried out in a glove box equilibrated with nitrogen at various residual oxygen levels (typically less than 5%). Light exposure is minimized.
# The stability testing under accelerated conditions (25° C. and 60% relative humidity for at least 6 months) of these formulations is presented in Table 6.
# [2] = Solubility by HPLC, bortezomib premixed with nonaqueous solvent before addition to aqueous component; assay type: physicochemical; conditions: aqueous with cosolvent or surfactant or cyclodextrin, kinetic from dmso stock; premix in non-aqueous solvent, aqueous system with 25 mg/mL mannitol
# Procedure: This example was carried out to determine the solubility of bortezomib in particular solvents and solvent systems when the bortezomib is first dissolved in (the batch quantity) of a non-aqueous solvent to form a concentrated solution (“premix”), prior to adding the premix to the aqueous component(s). A bortezomib sample (between 10 and 50 mg) was placed in a suitable glass container and added to a defined volume of a nonaqueous solvent system (if used) as defined below in Table 4, to create a concentrated premix. The premix was subsequently added to enough buffered aqueous solvent to make a final volume of 5 mL, as defined below in Table 4.
# The resulting formulation was allowed to equilibrate for 24 hours at room temperature, protected from light. Solubility was determined by filtration through a 0.45 micron filter, and assay of the filtrate for bortezomib content using an HPLC procedure, and a bortezomib standard. One mL aliquots of the filtrate (saturated solution) were subjected to three freeze-thaw cycles of 24 hours at −20° C. and 24 hours at 25° C. each, with visual examination after each cycle. Absence of precipitation after the three cycles was used as an index of physical stability of the formulation upon long-term storage.
# [3] = cited from earlier work
# physchem = conditions: thermodynamic from solid
# Procedure: The solubility of bortezomib in select non-aqueous solvents was determined to understand if any of these solvents may be useful (as a co-solvent with water) at low concentrations in the final formulation.
# Approximately 25 mg of bortezomib was added to a suitable container. An initial volume of 0.5 mL of the non-aqueous solvent was added and the mixture stirred for 5 minutes. The appearance of the solution was recorded. […] If the bortezomib was not fully dissolved, additional volume of solvents were added in 0.25 mL increments with mixing for 5 minutes after each addition, and recording the appearance of the solution, until the bortezomib was fully dissolved, up to a total volume of 10 mL.
# [4] = Formulation trials with low concentrations of benzyl alcohol / DMSO in water: visual dissolution and physical stability; assay type: physicochemical; conditions: benzyl alcohol (2% v/v), DMSO (5% v/v) or combination added to bortezomib, then water; mixing >3 hours
# Procedure: Initial formulation experiments with low concentrations of various non-aqueous solvents were conducted targeting a bortezomib concentration of 2.5 mg/mL. Attempts to solubilize bortezomib were conducted using low concentrations of benzyl alcohol (2% v/v), or dimethyl sulfoxide (5% v/v), or a combination of these solvents. […] For these formulations, the non-aqueous solvent was added to bortezomib to dissolve it, followed by addition of water to the bortezomib-solvent mixture.
# Various concentrations of DMSO were explored as the non-aqueous component of the formulation (2% v/v to 5% v/v in water). Bortezomib was first completely dissolved in the batch volume of DMSO to form a concentrated “premix” solution prior to making up the batch to the target concentration (2.5 mg/mL) with water. This was done to facilitate the subsequent dissolution of bortezomib in the aqueous component.
# [5] = Equilibrium solubility by HPLC, bortezomib added directly to solvent system; assay type: physicochemical; conditions: buffered aqueous solutions, aqueous buffer, thermodynamic from solid; pH range of 4 to 7
# Procedure: Because pH appeared to influence chemical stability, sodium acetate or sodium phosphate were included in these matrixes as buffers, and the effect of pH on solubility was also assessed.
# The components were mixed (by shaking the glass container), and the mixture was observed. […] The suspension was allowed to equilibrate for 24 hours at room temperature while being protected from light. After the incubation, the solution phase was removed from the container into a clean vial by filtration through a 0.45 micron syringe filter, and the filtrate was assayed for bortezomib content using an HPLC procedure, and a bortezomib standard.
smiles,measurement,setting,value
"CC(C)C[C@H](NC(=O)[C@H](Cc1ccccc1)NC(=O)c1cnccn1)B(O)O [Bortezomib, [(1R)-3-methyl-1-[[(2S)-1-oxo-3-phenyl-2-[(pyrazinylcarbonyl)amino]propyl]amino]butyl] boronic acid]",Total Impurities after 2 months at 25° C. (%),"[1]; 1 mg/mL bortezomib, 1% (v/v) DMSO in water, pH 4",7.83%
same,Total Impurities after 2 months at 25° C. (%),"[1]; 1 mg/mL bortezomib, 1% (v/v) DMSO in water, pH 5.5",0.52%
same,Total Impurities after 2 months at 25° C. (%),"[1]; 1 mg/mL bortezomib, 1% (v/v) DMSO in water, pH 7",1.18%
same,Total Impurities after 2 months at 25° C. (%),"[1]; 1 mg/mL bortezomib, 1% (v/v) DMSO in water, pH 8.5",12.48%
same,Total Impurities after 2 months at 25° C. (%),"[1]; 2.5 mg/mL bortezomib, […] (v/v) DMSO in water, pH 4",13.71%
same,Total Impurities after 2 months at 25° C. (%),"[1]; 2.5 mg/mL bortezomib, […] (v/v) DMSO in water, pH 5.5",1.07%
same,Total Impurities after 2 months at 25° C. (%),"[1]; 2.5 mg/mL bortezomib, […] (v/v) DMSO in water, pH 7",5.91%
same,Total Impurities after 2 months at 25° C. (%),"[1]; 2.5 mg/mL bortezomib, […] (v/v) DMSO in water, pH 8.5",31.59%
same,solubility at 24 h,[2],> 4000 µg/mL
same,solubility of bortezomib in water or buffered aqueous solutions reported by the suppliers,[3],< 100 µg/mL
same,solubility at 5 min,"physchem; N-methyl pyrrolidone (NMP), organic solvent or mixture",> 25000 µg/mL
same,solubility at 5 min,"physchem; benzyl alcohol, organic solvent or mixture",> 50000 µg/mL
same,solubility at 5 min,"physchem; dimethyl sulfoxide (DMSO), organic solvent or mixture",> 50000 µg/mL
same,solubility at 5 min,"physchem; ethanol, organic solvent or mixture",~4500 µg/mL
same,solubility at 5 min,"physchem; glycerol, organic solvent or mixture",< 2500 µg/mL
same,solubility at 5 min,"physchem; polyethylene glycol 400, organic solvent or mixture",< 2500 µg/mL
same,solubility at 5 min,"physchem; propylene glycol, organic solvent or mixture",~3600 µg/mL
same,dissolution at target 2.5 mg/mL,[4],precipitated after addition of water
same,solubility at 24 h,[5],< 500 µg/mL
